Experimental data reported in ChEMBL document CHEMBL4507319 (2021).

Legend:
[1] = test system: PC-3; test: PC-3 cell line Proliferation assay; format: functional, Homo sapiens; details: time 6 day
[2] = target: Serine/threonine-protein kinase Nek7 (Homo sapiens) (UniProt Q8TDX7); test: NEK7(h) Eurofins kinase panel; details: Compound concentration 1.0 uM
[3] = target: T1, MAP kinase-activated protein kinase 5 (Homo sapiens) (UniProt Q8IW41); test: PRAK(h) Eurofins kinase panel; details: Compound concentration 1.0 uM
T1 sequence (whole entry): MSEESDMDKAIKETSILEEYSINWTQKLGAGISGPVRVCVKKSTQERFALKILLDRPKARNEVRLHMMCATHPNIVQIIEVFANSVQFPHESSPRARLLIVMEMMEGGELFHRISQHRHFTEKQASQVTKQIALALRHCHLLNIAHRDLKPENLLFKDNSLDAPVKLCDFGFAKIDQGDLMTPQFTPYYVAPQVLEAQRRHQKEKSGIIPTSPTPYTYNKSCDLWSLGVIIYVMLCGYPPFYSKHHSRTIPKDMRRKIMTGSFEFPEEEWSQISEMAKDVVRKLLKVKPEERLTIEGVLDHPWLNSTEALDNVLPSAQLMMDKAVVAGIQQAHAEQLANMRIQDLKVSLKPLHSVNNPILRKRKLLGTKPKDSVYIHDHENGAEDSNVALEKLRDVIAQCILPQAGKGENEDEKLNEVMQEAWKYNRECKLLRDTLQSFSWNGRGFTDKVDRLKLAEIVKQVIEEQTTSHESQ

[4] = target: PI3-kinase p110-alpha/p85-alpha (Homo sapiens) (UniProt P27986+P42336); test: PI3 Kinase(p110a/p85a)(h) Eurofins kinase panel; format: protein-complex assay; details: Compound concentration 1.0 uM
[5] = target: Protein kinase C theta type (Homo sapiens) (UniProt Q04759); test: PKCtheta (h) Eurofins kinase panel; details: Compound concentration 1.0 uM
[6] = target: mTOR/FKBP12A/FKBP12B (Homo sapiens) (UniProt P62942+P68106+P42345); test: mTOR/FKBP12(h) Eurofins kinase panel; format: protein-complex assay; details: Compound concentration 1.0 uM
[7] = target: T2, Tyrosine-protein kinase Mer (Homo sapiens) (UniProt Q12866); test: Mer(h) Eurofins kinase panel; details: Compound concentration 1.0 uM
T2 sequence (whole entry): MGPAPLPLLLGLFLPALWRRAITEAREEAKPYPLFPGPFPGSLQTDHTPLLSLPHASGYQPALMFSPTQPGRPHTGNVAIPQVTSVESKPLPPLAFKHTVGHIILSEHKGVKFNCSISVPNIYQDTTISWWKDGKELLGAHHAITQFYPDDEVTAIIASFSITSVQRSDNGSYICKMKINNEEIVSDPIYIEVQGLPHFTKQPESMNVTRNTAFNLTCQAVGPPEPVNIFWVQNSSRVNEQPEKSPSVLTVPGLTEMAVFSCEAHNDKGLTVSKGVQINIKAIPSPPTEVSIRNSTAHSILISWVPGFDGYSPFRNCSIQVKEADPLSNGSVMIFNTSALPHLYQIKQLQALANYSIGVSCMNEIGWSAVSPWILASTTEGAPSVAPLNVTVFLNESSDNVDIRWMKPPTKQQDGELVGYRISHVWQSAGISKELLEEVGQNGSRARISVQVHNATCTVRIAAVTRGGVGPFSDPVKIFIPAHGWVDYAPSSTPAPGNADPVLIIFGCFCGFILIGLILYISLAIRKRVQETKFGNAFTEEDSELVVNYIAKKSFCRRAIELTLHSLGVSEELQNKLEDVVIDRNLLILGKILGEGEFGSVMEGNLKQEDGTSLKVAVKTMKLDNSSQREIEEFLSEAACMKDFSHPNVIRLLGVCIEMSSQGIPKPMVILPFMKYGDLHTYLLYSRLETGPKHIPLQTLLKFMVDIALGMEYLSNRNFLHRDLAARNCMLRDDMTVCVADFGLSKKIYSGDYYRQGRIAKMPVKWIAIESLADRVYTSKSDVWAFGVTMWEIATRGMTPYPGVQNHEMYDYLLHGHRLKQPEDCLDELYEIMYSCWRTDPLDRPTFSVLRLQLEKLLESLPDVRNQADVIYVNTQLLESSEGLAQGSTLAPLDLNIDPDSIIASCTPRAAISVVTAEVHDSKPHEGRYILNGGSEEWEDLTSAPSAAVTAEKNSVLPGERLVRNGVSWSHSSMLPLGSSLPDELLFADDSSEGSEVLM

[8] = target: BDNF/NT-3 growth factors receptor (Homo sapiens) (UniProt Q16620); test: TrkB(h) Eurofins kinase panel; details: Compound concentration 1.0 uM
Chain of BDNF/NT-3 growth factors receptor (Homo sapiens) (Q16620 32-822 limits assumed): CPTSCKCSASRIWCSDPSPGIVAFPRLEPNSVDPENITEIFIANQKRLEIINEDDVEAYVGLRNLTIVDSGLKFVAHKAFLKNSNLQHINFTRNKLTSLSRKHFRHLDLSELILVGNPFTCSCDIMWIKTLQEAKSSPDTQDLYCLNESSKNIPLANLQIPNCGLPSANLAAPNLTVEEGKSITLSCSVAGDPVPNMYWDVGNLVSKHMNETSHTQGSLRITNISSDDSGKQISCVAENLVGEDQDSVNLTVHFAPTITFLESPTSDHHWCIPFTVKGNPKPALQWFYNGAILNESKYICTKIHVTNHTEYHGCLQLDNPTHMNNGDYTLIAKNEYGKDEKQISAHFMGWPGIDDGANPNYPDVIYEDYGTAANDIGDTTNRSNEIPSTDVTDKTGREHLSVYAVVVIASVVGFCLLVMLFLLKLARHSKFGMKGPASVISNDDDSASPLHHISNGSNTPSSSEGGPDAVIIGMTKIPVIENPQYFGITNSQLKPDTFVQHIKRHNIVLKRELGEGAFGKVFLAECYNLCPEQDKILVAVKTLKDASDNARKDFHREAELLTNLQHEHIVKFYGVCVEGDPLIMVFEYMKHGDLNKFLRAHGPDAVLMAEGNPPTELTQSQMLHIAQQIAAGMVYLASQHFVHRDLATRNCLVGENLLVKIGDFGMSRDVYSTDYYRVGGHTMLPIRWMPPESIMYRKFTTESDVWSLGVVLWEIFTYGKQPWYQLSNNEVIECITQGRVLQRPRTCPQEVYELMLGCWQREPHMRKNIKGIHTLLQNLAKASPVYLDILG

[9] = target: Tyrosine-protein kinase Fer (Homo sapiens) (UniProt P16591); test: Fer(h) Eurofins kinase panel; details: Compound concentration 1.0 uM
[10] = target: T3, Serine/threonine-protein kinase ULK2 (Homo sapiens) (UniProt Q8IYT8); test: ULK2(h) Eurofins kinase panel; details: Compound concentration 1.0 uM
T3 sequence (whole entry): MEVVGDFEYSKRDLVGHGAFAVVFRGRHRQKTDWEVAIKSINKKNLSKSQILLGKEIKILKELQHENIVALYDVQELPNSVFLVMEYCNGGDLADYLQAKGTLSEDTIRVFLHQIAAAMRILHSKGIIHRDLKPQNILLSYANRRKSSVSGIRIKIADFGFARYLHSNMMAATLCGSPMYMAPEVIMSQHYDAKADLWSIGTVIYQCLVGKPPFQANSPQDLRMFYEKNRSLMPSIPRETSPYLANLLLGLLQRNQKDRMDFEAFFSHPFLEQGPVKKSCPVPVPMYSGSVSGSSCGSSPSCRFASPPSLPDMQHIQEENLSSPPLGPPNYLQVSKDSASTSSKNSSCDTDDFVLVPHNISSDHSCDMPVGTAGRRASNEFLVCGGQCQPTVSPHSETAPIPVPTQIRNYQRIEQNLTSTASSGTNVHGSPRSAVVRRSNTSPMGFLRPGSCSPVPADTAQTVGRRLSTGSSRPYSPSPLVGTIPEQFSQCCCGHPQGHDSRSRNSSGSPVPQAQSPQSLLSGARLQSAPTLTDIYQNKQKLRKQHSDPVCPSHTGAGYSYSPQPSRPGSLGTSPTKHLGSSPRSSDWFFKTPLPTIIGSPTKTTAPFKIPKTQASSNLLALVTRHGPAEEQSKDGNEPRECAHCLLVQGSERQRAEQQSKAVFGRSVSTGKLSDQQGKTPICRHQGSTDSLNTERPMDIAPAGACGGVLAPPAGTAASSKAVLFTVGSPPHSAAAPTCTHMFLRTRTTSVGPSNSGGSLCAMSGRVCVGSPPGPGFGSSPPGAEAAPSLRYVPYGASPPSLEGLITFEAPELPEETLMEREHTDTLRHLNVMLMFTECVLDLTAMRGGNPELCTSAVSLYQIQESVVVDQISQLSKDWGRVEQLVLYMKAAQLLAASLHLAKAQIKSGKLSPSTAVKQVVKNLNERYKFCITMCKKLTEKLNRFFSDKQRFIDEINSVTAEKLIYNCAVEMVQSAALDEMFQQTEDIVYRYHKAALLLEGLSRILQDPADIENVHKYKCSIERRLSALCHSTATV

[11] = target: Misshapen-like kinase 1 (Homo sapiens) (UniProt Q8N4C8); test: MINK(h) Eurofins kinase panel; details: Compound concentration 1.0 uM
Chain of Misshapen-like kinase 1 (Homo sapiens) (Q8N4C8 whole entry, looked up): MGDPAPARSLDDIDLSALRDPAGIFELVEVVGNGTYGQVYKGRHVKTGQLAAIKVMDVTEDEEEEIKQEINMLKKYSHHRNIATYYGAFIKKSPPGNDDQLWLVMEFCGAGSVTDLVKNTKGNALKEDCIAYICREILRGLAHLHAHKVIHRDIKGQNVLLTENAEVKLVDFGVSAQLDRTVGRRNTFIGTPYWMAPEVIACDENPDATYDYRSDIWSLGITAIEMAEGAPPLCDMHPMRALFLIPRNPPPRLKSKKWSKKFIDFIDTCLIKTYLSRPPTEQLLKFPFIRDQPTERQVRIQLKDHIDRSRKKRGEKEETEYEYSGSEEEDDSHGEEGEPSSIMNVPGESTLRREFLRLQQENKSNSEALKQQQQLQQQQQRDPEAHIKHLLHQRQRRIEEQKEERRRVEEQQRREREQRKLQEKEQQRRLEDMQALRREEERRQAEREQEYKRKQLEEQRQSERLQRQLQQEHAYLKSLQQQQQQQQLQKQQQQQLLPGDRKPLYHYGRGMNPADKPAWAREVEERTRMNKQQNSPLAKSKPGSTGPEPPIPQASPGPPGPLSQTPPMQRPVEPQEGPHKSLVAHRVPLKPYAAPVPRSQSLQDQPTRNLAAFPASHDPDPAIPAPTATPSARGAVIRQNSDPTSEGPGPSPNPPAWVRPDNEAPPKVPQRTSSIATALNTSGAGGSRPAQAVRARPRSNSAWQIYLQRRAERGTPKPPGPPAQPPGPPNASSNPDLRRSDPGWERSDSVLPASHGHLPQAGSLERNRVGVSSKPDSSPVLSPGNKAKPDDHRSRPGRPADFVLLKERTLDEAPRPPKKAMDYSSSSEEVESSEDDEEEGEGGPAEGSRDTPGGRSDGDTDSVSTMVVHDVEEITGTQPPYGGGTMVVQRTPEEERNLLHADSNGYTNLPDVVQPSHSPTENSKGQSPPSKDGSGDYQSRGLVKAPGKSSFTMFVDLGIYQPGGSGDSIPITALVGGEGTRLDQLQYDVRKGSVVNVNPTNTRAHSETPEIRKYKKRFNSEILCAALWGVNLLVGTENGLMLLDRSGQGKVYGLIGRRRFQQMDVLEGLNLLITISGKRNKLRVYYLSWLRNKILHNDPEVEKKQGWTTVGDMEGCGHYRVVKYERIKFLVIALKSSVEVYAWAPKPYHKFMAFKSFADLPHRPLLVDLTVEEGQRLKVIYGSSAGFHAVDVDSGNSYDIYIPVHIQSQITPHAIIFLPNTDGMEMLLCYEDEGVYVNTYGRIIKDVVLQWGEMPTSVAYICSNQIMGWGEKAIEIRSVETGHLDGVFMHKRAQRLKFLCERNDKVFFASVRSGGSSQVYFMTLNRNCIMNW

[12] = target: Serine/threonine-protein kinase WNK3 (Homo sapiens) (UniProt Q9BYP7); test: WNK3(h) Eurofins kinase panel; details: Compound concentration 1.0 uM
Chain of Serine/threonine-protein kinase WNK3 (Homo sapiens) (Q9BYP7 whole entry): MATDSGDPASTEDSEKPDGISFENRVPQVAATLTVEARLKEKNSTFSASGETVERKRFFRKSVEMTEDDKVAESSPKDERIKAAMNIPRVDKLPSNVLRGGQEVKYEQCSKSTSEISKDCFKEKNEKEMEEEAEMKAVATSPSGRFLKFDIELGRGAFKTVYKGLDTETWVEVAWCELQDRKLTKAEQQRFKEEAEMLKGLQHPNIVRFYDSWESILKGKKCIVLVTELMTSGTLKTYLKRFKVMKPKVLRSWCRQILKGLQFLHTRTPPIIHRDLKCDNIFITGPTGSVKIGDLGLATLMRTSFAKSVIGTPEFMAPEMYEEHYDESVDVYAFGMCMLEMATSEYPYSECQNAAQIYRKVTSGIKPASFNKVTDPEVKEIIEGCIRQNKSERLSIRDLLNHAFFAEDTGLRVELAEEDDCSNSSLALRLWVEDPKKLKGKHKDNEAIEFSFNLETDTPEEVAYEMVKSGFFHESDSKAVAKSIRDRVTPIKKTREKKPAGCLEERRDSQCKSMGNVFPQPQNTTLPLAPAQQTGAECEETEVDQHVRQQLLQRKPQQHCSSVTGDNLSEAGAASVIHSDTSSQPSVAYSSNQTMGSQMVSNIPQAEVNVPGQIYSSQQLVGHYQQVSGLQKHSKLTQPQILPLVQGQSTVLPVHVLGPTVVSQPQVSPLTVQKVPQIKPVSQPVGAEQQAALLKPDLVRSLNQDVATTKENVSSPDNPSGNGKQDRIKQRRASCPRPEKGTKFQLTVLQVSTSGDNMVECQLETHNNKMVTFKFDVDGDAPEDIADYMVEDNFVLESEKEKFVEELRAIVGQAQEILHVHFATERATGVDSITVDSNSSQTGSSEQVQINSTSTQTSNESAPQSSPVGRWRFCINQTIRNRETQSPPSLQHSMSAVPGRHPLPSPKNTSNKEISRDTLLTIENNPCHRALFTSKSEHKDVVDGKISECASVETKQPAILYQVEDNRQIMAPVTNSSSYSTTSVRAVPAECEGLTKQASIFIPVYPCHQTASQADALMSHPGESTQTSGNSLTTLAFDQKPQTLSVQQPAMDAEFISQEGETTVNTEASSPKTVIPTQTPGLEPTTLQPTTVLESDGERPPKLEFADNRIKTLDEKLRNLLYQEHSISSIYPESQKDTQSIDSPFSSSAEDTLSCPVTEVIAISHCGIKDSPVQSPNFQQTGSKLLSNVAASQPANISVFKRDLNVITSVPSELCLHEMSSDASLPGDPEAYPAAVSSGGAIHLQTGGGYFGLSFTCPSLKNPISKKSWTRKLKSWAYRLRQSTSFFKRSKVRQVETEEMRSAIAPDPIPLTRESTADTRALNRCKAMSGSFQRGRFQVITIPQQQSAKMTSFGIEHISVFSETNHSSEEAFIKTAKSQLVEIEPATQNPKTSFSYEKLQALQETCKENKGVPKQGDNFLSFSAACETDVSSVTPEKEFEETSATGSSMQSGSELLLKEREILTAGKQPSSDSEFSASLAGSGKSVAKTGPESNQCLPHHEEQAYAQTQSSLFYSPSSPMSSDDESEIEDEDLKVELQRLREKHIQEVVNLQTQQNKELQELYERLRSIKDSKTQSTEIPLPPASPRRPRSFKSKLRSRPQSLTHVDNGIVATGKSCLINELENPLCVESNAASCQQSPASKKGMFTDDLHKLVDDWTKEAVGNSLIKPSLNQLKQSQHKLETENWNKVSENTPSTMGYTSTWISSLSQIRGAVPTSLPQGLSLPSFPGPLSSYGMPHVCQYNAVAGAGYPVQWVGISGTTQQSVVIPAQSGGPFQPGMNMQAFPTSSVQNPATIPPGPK

[13] = target: Protein kinase C delta type (Homo sapiens) (UniProt Q05655); test: PKCdelta (h) Eurofins kinase panel; details: Compound concentration 1.0 uM
Chain of Protein kinase C delta type (Homo sapiens) (Q05655 whole entry, looked up): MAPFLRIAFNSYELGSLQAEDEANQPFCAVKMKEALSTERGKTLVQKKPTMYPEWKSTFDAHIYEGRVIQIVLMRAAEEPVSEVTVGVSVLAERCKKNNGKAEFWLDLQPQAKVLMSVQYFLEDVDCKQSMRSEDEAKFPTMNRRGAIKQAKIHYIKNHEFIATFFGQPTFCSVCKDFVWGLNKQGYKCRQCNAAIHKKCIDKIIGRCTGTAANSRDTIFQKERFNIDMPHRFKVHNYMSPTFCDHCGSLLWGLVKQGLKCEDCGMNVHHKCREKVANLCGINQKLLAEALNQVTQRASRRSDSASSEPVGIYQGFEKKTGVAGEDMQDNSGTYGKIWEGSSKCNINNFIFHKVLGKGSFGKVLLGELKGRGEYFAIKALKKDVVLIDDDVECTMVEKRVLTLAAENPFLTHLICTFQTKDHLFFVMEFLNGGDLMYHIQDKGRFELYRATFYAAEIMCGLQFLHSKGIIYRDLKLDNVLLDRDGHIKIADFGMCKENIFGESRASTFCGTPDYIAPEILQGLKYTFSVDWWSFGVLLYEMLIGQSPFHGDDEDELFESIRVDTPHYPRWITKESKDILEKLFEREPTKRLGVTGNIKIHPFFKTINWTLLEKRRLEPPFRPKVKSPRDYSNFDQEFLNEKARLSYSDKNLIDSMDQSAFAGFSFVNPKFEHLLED

Chain of Serine/threonine-protein kinase Nek7 (Homo sapiens) (Q8TDX7 whole entry, looked up): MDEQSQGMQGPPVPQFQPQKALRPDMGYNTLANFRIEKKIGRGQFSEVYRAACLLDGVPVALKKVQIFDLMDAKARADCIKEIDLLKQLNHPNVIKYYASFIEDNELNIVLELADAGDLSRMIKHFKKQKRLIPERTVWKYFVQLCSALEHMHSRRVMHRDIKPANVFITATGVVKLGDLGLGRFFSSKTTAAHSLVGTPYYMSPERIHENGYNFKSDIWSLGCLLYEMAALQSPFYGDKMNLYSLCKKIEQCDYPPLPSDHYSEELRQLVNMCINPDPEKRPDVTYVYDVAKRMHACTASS

Which “Cell Proliferation IC50” value [1] does the source give for `CCc1ccccc1C(=O)Nc1n[nH]c2c(C)c(F)c(C3C(C#N)=C(C)N(C)C(C)=C3C#N)cc12` [BAY-3827] here?
The value was over 10 µM.

What about the % residual kinase activity [2] of the same molecule?
Its % residual kinase activity is 112%.

What about the % residual kinase activity [3] of the same molecule?
Its % residual kinase activity is 87%.

And the % residual kinase activity [4]?
The % residual kinase activity was 99%.

What about the % residual kinase activity [5] of the same molecule?
The % residual kinase activity was 33%.

What about the % residual kinase activity [6] of the same molecule?
The % residual kinase activity was 98%.

And the % residual kinase activity [7]?
The % residual kinase activity was 96%.

What about the % residual kinase activity [8] of the same molecule?
The % residual kinase activity was 103%.

What about the % residual kinase activity [9] of the same molecule?
Its % residual kinase activity is 100%.

And the % residual kinase activity [10]?
Its % residual kinase activity is 84%.

What about the % residual kinase activity [11] of the same molecule?
Its % residual kinase activity is 99%.

And the % residual kinase activity [12]?
The % residual kinase activity was 103%.

What about the % residual kinase activity [13] of the same molecule?
The % residual kinase activity was 69%.
